The source of these data is patent US5204470A, “Azabicyclic derivatives” (John Wyeth & Brother, Limited, priority 1990, dated 1993).

Test [1] deals with T1, 5-HT3 receptors (Oryctolagus cuniculus, UniProt A0A5F9C9J3).
T1 construct: isolated right atrium of the rabbit heart; from tissue; host or cells: rabbit isolated right atrium (sympathetic nerve terminals)
T1 sequence (A0A5F9C9J3 1-494): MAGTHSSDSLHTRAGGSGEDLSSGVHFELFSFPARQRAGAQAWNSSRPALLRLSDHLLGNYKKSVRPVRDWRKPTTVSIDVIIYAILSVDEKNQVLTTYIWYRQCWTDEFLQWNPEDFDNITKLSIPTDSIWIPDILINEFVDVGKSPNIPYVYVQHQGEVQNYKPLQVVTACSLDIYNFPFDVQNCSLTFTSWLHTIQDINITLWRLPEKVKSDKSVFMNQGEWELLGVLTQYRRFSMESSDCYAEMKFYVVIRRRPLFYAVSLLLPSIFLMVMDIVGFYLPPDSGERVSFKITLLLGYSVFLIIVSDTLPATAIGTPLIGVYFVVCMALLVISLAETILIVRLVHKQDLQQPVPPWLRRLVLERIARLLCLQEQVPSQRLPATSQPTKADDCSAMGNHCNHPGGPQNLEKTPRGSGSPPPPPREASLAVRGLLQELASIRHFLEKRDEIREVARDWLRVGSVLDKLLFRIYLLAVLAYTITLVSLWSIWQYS
In words: 5-HT3 antagonist activity in the isolated right atrium of the rabbit heart. The test is classed as cell-based. The note with it: antagonism of 5-HT evoked increase in spontaneous rate of beating, read-out: apparent pKB (converted). The procedure:
The compounds of the invention are also tested for 5-HT3 antagonist activity in the isolated right atrium of the rabbit heart based upon the method of Fozard J. R., Naunyn-Schmiedeberg's Arch. Pharmacol., 1984, 326, 36-44. This procedure relies upon the ability of 5-HT to stimulate 5-HT3 receptors present on symphetic nerve terminals in the heart, causing release of noradrenaline which evokes an increase in the spontaneous rate of beating. The antagonist potency is expressed in a similar manner to that of the preceding test method i.e. as an apparent pKB.

Test [2] addresses T2, 5-HT3 receptors (Rattus norvegicus, UniProt P35563).
T2 construct: isolated vagus nerve of the rat; from tissue; host or cells: rat isolated (cervical) vagus nerve
T2 sequence (P35563 24-483): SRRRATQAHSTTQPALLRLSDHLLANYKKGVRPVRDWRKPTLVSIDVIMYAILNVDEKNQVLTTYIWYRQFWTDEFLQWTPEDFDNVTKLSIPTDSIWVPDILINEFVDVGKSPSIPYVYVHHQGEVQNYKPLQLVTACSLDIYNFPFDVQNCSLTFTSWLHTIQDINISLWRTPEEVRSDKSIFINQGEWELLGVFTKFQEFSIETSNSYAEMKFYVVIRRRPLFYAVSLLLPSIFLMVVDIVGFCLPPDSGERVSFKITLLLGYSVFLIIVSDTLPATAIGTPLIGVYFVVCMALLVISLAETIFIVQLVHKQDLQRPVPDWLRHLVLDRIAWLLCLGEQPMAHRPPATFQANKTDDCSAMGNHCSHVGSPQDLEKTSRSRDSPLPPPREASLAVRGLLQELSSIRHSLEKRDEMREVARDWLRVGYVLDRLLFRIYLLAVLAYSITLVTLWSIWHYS
Description: 5-HT3 receptor antagonism in the isolated vagus nerve of the rat (5-HT induced depolarization). Type of test: cell-based. The note with it: isolated rat cervical vagus nerve; antagonism of 5-HT induced depolarization; estimated from 5-HT concentration ratios; read-out: apparent pKB (converted). The procedure:
The compounds of the invention are tested for 5-HT3 receptor antagonism in the isolated vagus nerve of the rat by a method based upon that of Ireland S. J. and Tyers M. B., Brit. J. Pharmacol., 1987, 90, 229-238. The procedure relies upon the ability of 5-HT to induce depolarization of neurones in the cervical vagus nerve by a direct action on 5-HT3 receptors. A concentration-response curve to 5-HT induced depolarization is obtained and the antagonists are added to the bath containing the isolated nerve before repeating the 5-HT concentration-response curve. Antagonist potency is estimated for the 5-HT concentration ratios and expressed as an apparent pKB value (where KB is the antagonist dissociation constant).

Regarding `CN1C2C=C(Cc3ccc4ccccc4n3)CC1CC2` (centres unmarked) [Example 2, 3-(2-Quinolinylmethyl)-8-methyl-8-azabicyclo[3.2.1]oct-2-ene], the Kb on 5-HT3 receptors [1] was 2.51 nM; on 5-HT3 receptors [2] it was 63.1 nM.
